Laboratory results: ChEMBL document CHEMBL3588748, “Original 2-(3-Alkoxy-1H-pyrazol-1-yl)azines Inhibitors of Human Dihydroorotate Dehydrogenase (DHODH)” (J Med Chem, 2015)
Activity calls are given as the source filed them. How the calls were made is not given here.

Columns and labels:
Plasmodium falciparum = assay: Antiplasmodial activity against Plasmodium falciparum 3D7 assessed as inhibition of parasite growth at 8.66 ug/ml by SYBR Green I dye based assay; assay type: functional, organism-based

Description for Measles morbillivirus: Antiviral activity against measles virus rMV2/Luc infected in HEK-293T cells assessed as inhibition of virus growth incubated for 24 hrs by firefly luciferase reporter gene assay

## CCOc1nn(-c2ccc(C3CC3)cn2)c(C)c1Oc1cccc(Cl)c1Cl
Plasmodium falciparum
  growth inhibition (GI): inactive
Measles morbillivirus
  pMIC50: 7.9

## CCOc1nn(-c2ccc(C3CC3)nn2)c(C)c1Oc1ccccc1C(F)(F)F
Plasmodium falciparum
  growth inhibition (GI): inactive
Measles morbillivirus
  pMIC50: 6.8

## CCOc1nn(-c2ccc(C3CC3)cn2)c(C)c1Oc1ccccc1F
Plasmodium falciparum
  growth inhibition (GI): inactive
Measles morbillivirus
  pMIC50: 7.7

## CCOc1nn(-c2ccc(C#N)cn2)c(C)c1Cc1ccccc1
Plasmodium falciparum
  growth inhibition (GI): inactive
Measles morbillivirus
  pMIC50: <5

## CCOc1nn(-c2cccc(C)n2)c(C)c1Cc1ccccc1
Plasmodium falciparum
  growth inhibition (GI): inactive
Measles morbillivirus
  pMIC50: <5

## CCOc1nn(-c2ncccc2C)c(C)c1Cc1ccccc1
Plasmodium falciparum
  growth inhibition (GI): inactive
Measles morbillivirus
  pMIC50: <5

## CCOc1nn(-c2ccc(C3CC3)cn2)c(C)c1Oc1ccccc1Br
Plasmodium falciparum
  growth inhibition (GI): inactive
Measles morbillivirus
  pMIC50: 7.8

## Cc1c(Oc2c(F)cccc2F)c(OC(C)C)nn1-c1cnc(C(C)(C)C)nc1
Plasmodium falciparum
  growth inhibition (GI): inactive

## CCCc1cnc(-n2nc(OC(C)C)c(Oc3c(F)cccc3F)c2C)c(F)c1
Plasmodium falciparum
  growth inhibition (GI): inactive
Measles morbillivirus
  pMIC50: 6.7

## CCOc1nn(-c2ccc(C3CC3)cn2)c(C)c1Oc1cc(Cl)cc(Cl)c1
Plasmodium falciparum
  growth inhibition (GI): inactive
Measles morbillivirus
  pMIC50: 6.9

## Cc1c(Oc2ccc(F)cc2F)c(OC(C)C)nn1-c1ccc(C2CC2)nn1
Plasmodium falciparum
  growth inhibition (GI): inactive
Measles morbillivirus
  pMIC50: 6.4

## CCOc1nn(-c2ccc(C3CC3)nn2)c(C)c1Oc1ccc(C(F)(F)F)cc1
Plasmodium falciparum
  growth inhibition (GI): inactive
Measles morbillivirus
  pMIC50: 5.2

## CCOc1nn(-c2ccc(C3CC3)cn2)c(C)c1Oc1ccccc1
Plasmodium falciparum
  growth inhibition (GI): inactive
Measles morbillivirus
  pMIC50: 7

## Cc1c(Oc2c(F)cccc2F)c(OC(C)C)nn1-c1cnc(Br)cn1
Plasmodium falciparum
  growth inhibition (GI): inactive
Measles morbillivirus
  pMIC50: 5.5

## CCOc1nn(-c2ccc(C3CC3)nn2)c(C)c1Oc1cc(Cl)cc(Cl)c1
Plasmodium falciparum
  growth inhibition (GI): inactive
Measles morbillivirus
  pMIC50: 6.2

## CCOc1nn(-c2ccc(OC)cn2)c(C)c1Cc1ccccc1
Plasmodium falciparum
  growth inhibition (GI): inactive
Measles morbillivirus
  pMIC50: 5.5

## CCOc1nn(-c2ccc(C(C)(C)O)cn2)c(C)c1Cc1ccccc1
Plasmodium falciparum
  growth inhibition (GI): inactive
Measles morbillivirus
  pMIC50: 5.3

## CCc1ccc(-n2nc(OC(C)C)c(Oc3c(F)cccc3F)c2C)nc1
Plasmodium falciparum
  growth inhibition (GI): inactive
Measles morbillivirus
  pMIC50: 7.1

## CCOc1nn(-c2ccc(C3CC3)nn2)c(C)c1Oc1ccccc1F
Plasmodium falciparum
  growth inhibition (GI): inactive
Measles morbillivirus
  pMIC50: 7.7

## Cc1c(Oc2ccccc2F)c(OC(C)C)nn1-c1ccc(C2CC2)nn1
Plasmodium falciparum
  growth inhibition (GI): inactive
Measles morbillivirus
  pMIC50: 7.4

## CCOc1nn(-c2ccc(C3CC3)nn2)c(C)c1Oc1cccc(C(F)(F)F)c1
Plasmodium falciparum
  growth inhibition (GI): inactive
Measles morbillivirus
  pMIC50: 6.4

## Cc1c(Oc2c(F)cccc2F)c(OC(C)C)nn1-c1ccc(C(C)(C)O)cn1
Plasmodium falciparum
  growth inhibition (GI): inactive
Measles morbillivirus
  pMIC50: 6.7

## CCOc1nn(-c2ccc(C(C)=O)cn2)c(C)c1Cc1ccccc1
Plasmodium falciparum
  growth inhibition (GI): inactive
Measles morbillivirus
  pMIC50: <5

## Cc1c(Oc2c(F)cccc2F)c(OC(C)C)nn1-c1cnc(C2CC2)nc1
Plasmodium falciparum
  growth inhibition (GI): inactive
Measles morbillivirus
  pMIC50: 6.8

## Cc1c(Oc2cccc(F)c2F)c(OC(C)C)nn1-c1ccc(C2CC2)nn1
Plasmodium falciparum
  growth inhibition (GI): inactive
Measles morbillivirus
  pMIC50: 7.4

## CC(=O)c1ccc(-n2nc(OC(C)C)c(Oc3c(F)cccc3F)c2C)nc1
Plasmodium falciparum
  growth inhibition (GI): inactive
Measles morbillivirus
  pMIC50: 6.6

## Cc1c(Oc2c(F)cccc2F)c(OC(C)C)nn1-c1ncc(C2CC2)cc1OCc1ccccc1
Plasmodium falciparum
  growth inhibition (GI): inactive
Measles morbillivirus
  pMIC50: 7

## CCOc1nn(-c2ccc(C3CC3)cn2)c(C)c1Oc1cccc(C(F)(F)F)c1
Plasmodium falciparum
  growth inhibition (GI): inactive
Measles morbillivirus
  pMIC50: 7.1

## CCc1cnc(-n2nc(OC(C)C)c(Oc3c(F)cccc3F)c2C)c(F)c1
Plasmodium falciparum
  growth inhibition (GI): inactive
Measles morbillivirus
  pMIC50: 7.1

## Cc1c(Oc2c(F)cccc2F)c(OC(C)C)nn1-c1ncc(C2CC2)cc1N(C)C
Plasmodium falciparum
  growth inhibition (GI): inactive
Measles morbillivirus
  pMIC50: 7.5

## CCOc1nn(-c2ccc(C(C)C)cn2)c(C)c1Cc1ccccc1
Plasmodium falciparum
  growth inhibition (GI): inactive
Measles morbillivirus
  pMIC50: 5.9

## Cc1c(-c2ccc(-c3ccccc3F)cc2)nc2ccc(F)cc2c1C(=O)O
Plasmodium falciparum
  growth inhibition (GI): inactive

## Cc1c(Oc2c(F)cccc2F)c(OC(C)C)nn1-c1ccc(Br)cn1
Plasmodium falciparum
  growth inhibition (GI): inactive
Measles morbillivirus
  pMIC50: 6.3

## CCOc1ccc(-n2nc(OC(C)C)c(Oc3c(F)cccc3F)c2C)nn1
Plasmodium falciparum
  growth inhibition (GI): inactive

## CCOc1nn(-c2ccc(C3CC3)cn2)c(C)c1Oc1ccccc1Cl
Plasmodium falciparum
  growth inhibition (GI): inactive
Measles morbillivirus
  pMIC50: 7.9

## CCOc1nn(-c2ncccc2F)c(C)c1Cc1ccccc1
Plasmodium falciparum
  growth inhibition (GI): inactive
Measles morbillivirus
  pMIC50: 5.2

## Cc1c(Oc2c(F)cccc2F)c(OC(C)C)nn1-c1cnc(C2CC2)cn1
Plasmodium falciparum
  growth inhibition (GI): inactive

## CCOc1nn(-c2ccc(C3CC3)nn2)c(C)c1Oc1ccccc1Cl
Plasmodium falciparum
  growth inhibition (GI): inactive
Measles morbillivirus
  pMIC50: 7.1

## Cc1c(Oc2c(F)cccc2F)c(OC(C)C)nn1-c1ccccn1
Plasmodium falciparum
  growth inhibition (GI): inactive
Measles morbillivirus
  pMIC50: <5

## CCOc1nn(-c2ccc(C3CC3)cn2)c(C)c1Oc1ccccc1C(F)(F)F
Plasmodium falciparum
  growth inhibition (GI): inactive
Measles morbillivirus
  pMIC50: 7.3

## COc1ccc(-n2nc(OC(C)C)c(Oc3c(F)cccc3F)c2C)nc1
Plasmodium falciparum
  growth inhibition (GI): inactive
Measles morbillivirus
  pMIC50: 7.3

## CCOc1nn(-c2ncc(Br)cc2F)c(C)c1Cc1ccccc1
Plasmodium falciparum
  growth inhibition (GI): inactive
Measles morbillivirus
  pMIC50: 5.9

## Cc1ccc(-n2nc(OC(C)C)c(Oc3c(F)cccc3F)c2C)cn1
Plasmodium falciparum
  growth inhibition (GI): inactive

## CCOc1nn(-c2ccccn2)c(C)c1Cc1ccccc1
Plasmodium falciparum
  growth inhibition (GI): inactive
Measles morbillivirus
  pMIC50: <5

## Cc1c(Oc2cc(F)ccc2F)c(OC(C)C)nn1-c1ccc(C2CC2)cn1
Plasmodium falciparum
  growth inhibition (GI): inactive
Measles morbillivirus
  pMIC50: 7.4

## CCc1nnc(-n2nc(OC(C)C)c(Oc3c(F)cccc3F)c2C)nc1O
Plasmodium falciparum
  growth inhibition (GI): inactive
Measles morbillivirus
  pMIC50: 7.6

## CCOc1nn(-c2ncc(C3CC3)cc2F)c(C)c1Cc1ccccc1
Plasmodium falciparum
  growth inhibition (GI): inactive
Measles morbillivirus
  pMIC50: 7

## CCOc1nn(-c2ncc(C3CC3)cc2C#N)c(C)c1Cc1ccccc1
Plasmodium falciparum
  growth inhibition (GI): inactive
Measles morbillivirus
  pMIC50: 6.6

## Cc1cc(Br)cnc1-n1nc(OC(C)C)c(Oc2c(F)cccc2F)c1C
Plasmodium falciparum
  growth inhibition (GI): inactive
Measles morbillivirus
  pMIC50: 5.9

## CCOc1nn(-c2cccc(F)n2)c(C)c1Cc1ccccc1
Plasmodium falciparum
  growth inhibition (GI): inactive
Measles morbillivirus
  pMIC50: <5

## CCOc1nn(-c2ccc(C3CC3)cn2)c(C)c1Cc1ccccc1
Plasmodium falciparum
  growth inhibition (GI): inactive
Measles morbillivirus
  pMIC50: 7

## Cc1c(Oc2cc(F)ccc2F)c(OC(C)C)nn1-c1ccc(C2CC2)nn1
Plasmodium falciparum
  growth inhibition (GI): inactive
Measles morbillivirus
  pMIC50: 7

## CCOc1nn(-c2ccc(Br)cn2)c(C)c1Cc1ccccc1
Plasmodium falciparum
  growth inhibition (GI): inactive
Measles morbillivirus
  pMIC50: 5.3

## CCOc1nn(-c2ccc(C3CC3)nn2)c(C)c1Oc1ccccc1Br
Plasmodium falciparum
  growth inhibition (GI): inactive
Measles morbillivirus
  pMIC50: 7.2

## CCOc1nn(-c2ccc(C(F)(F)F)cn2)c(C)c1Cc1ccccc1
Plasmodium falciparum
  growth inhibition (GI): inactive
Measles morbillivirus
  pMIC50: 5.5

## CCOc1nn(-c2cccc(C(F)(F)F)n2)c(C)c1Cc1ccccc1
Plasmodium falciparum
  growth inhibition (GI): inactive
Measles morbillivirus
  pMIC50: <5

## Cc1c(Oc2c(F)cccc2F)c(OC(C)C)nn1-c1cnc(C(F)(F)F)cn1
Plasmodium falciparum
  growth inhibition (GI): inactive
Measles morbillivirus
  pMIC50: 5.3

## Cc1c(Oc2c(F)cccc2F)c(OC(C)C)nn1-c1ccc(C(F)(F)F)cn1
Plasmodium falciparum
  growth inhibition (GI): inactive
Measles morbillivirus
  pMIC50: 6.5

## Cc1c(Oc2cccc(F)c2F)c(OC(C)C)nn1-c1ccc(C2CC2)cn1
Plasmodium falciparum
  growth inhibition (GI): inactive
Measles morbillivirus
  pMIC50: 7.4

## Cc1c(Oc2ccc(F)cc2)c(OC(C)C)nn1-c1ccc(C2CC2)nn1
Plasmodium falciparum
  growth inhibition (GI): inactive
Measles morbillivirus
  pMIC50: 5.6

## COc1cc(C2CC2)cnc1-n1nc(OC(C)C)c(Oc2c(F)cccc2F)c1C
Plasmodium falciparum
  growth inhibition (GI): inactive
Measles morbillivirus
  pMIC50: 7.5

## CCOc1nn(-c2ncc(Br)cc2C)c(C)c1Cc1ccccc1
Plasmodium falciparum
  growth inhibition (GI): inactive
Measles morbillivirus
  pMIC50: <5

## Cc1c(Oc2c(F)cccc2F)c(OC(C)C)nn1-c1ccc(Cl)nn1
Plasmodium falciparum
  growth inhibition (GI): inactive
Measles morbillivirus
  pMIC50: 6.8

## Cc1ccc(-n2nc(OC(C)C)c(Oc3c(F)cccc3F)c2C)nc1
Plasmodium falciparum
  growth inhibition (GI): inactive
Measles morbillivirus
  pMIC50: 7.6

## Cc1c(Oc2c(F)cccc2F)c(OC(C)C)nn1-c1ncc(C2CC2)cc1C#N
Plasmodium falciparum
  growth inhibition (GI): inactive
Measles morbillivirus
  pMIC50: 8.1

## Cc1c(Oc2cccc(F)c2)c(OC(C)C)nn1-c1ccc(C2CC2)cn1
Plasmodium falciparum
  growth inhibition (GI): inactive
Measles morbillivirus
  pMIC50: 6.8

## COc1cnc(-n2nc(OC(C)C)c(Oc3c(F)cccc3F)c2C)cn1
Plasmodium falciparum
  growth inhibition (GI): inactive
Measles morbillivirus
  pMIC50: 6.1

## CCn1cnc(-n2nc(OC(C)C)c(Oc3c(F)cccc3F)c2C)c1
Plasmodium falciparum
  growth inhibition (GI): inactive

## CCOc1nn(-c2ccc(C3CC3)nn2)c(C)c1Oc1cccc(Cl)c1Cl
Plasmodium falciparum
  growth inhibition (GI): inactive
Measles morbillivirus
  pMIC50: 7.4

## Cc1c(Oc2cccc(F)c2)c(OC(C)C)nn1-c1ccc(C2CC2)nn1
Plasmodium falciparum
  growth inhibition (GI): inactive
Measles morbillivirus
  pMIC50: 6.4

## Cc1c(Oc2ccc(F)cc2F)c(OC(C)C)nn1-c1ccc(C2CC2)cn1
Plasmodium falciparum
  growth inhibition (GI): inactive
Measles morbillivirus
  pMIC50: 6.5

## CCOc1nn(-c2ccc(C3CC3)nn2)c(C)c1Oc1cc(Cl)ccc1Cl
Plasmodium falciparum
  growth inhibition (GI): inactive
Measles morbillivirus
  pMIC50: 6.9

## CCOc1nn(-c2ccc(C3CC3)cn2)c(C)c1Oc1ccc(C(F)(F)F)cc1
Plasmodium falciparum
  growth inhibition (GI): inactive
Measles morbillivirus
  pMIC50: 5.3

## Cc1c(Oc2c(F)cccc2F)c(OC(C)C)nn1-c1ccc(C(C)(F)F)cn1
Plasmodium falciparum
  growth inhibition (GI): inactive
Measles morbillivirus
  pMIC50: 7.1

## CCc1ccc(-n2nc(OC(C)C)c(Oc3c(F)cccc3F)c2C)cn1
Plasmodium falciparum
  growth inhibition (GI): inactive

## Cc1c(Oc2ccc(F)cc2)c(OC(C)C)nn1-c1ccc(C2CC2)cn1 [IPP/CNRS-A019]
Plasmodium falciparum
  growth inhibition (GI): inactive
Measles morbillivirus
  pMIC50: 5.9

## CCOc1nn(-c2ccc(C3CC3)cn2)c(C)c1Oc1cc(Cl)ccc1Cl
Plasmodium falciparum
  growth inhibition (GI): inactive
Measles morbillivirus
  pMIC50: 7.1

## COc1ccc(-n2nc(OC(C)C)c(Oc3c(F)cccc3F)c2C)cn1
Plasmodium falciparum
  growth inhibition (GI): inactive
